Measurements as given in US20220030868A1, “FUNGICIDAL HALOMETHYL KETONES AND HYDRATES” (FMC CORPORATION, priority 2018, published 2022).

What was measured:
[1] = system: Phakopsora pachyrhizi; experiment: Test A: test suspension sprayed on soybean seedlings one day before inoculation with Phakopsora pachyrhizi spores (Asian soybean rust), visual disease rating; assay type: in vivo; conditions: 100 = 100% disease control, 0 = no control; for pest or weed control at 50 ppm / pest or weed control at 10 ppm: Phakopsora pachyrhizi
From the text: General protocol for preparing test suspensions for Tests A-C: the test compounds were first dissolved in acetone in an amount equal to 3% of the final volume and then suspended at the desired concentration (in ppm) in acetone and purified water (50/50 mix by volume) containing 250 ppm of the surfactant PEG400 (polyhydric alcohol esters). The resulting test suspensions were then used in Tests A-C.
The test solution was sprayed to the point of run-off on soybean seedlings. The following day the seedlings were inoculated with a spore suspension of Phakopsora pachyrhizi (the causal agent of Asian soybean rust) and incubated in a saturated atmosphere at 22° C. for 24 h, and then moved to a growth chamber at 22° C. for 8 days, after which time visual disease ratings were made.
Results for Tests A-C are given in Table A. In the Table, a rating of 100 indicates 100% disease control and a rating of 0 indicates no disease control (relative to the controls). An asterisk “*” or a double asterisk “**” next to the rating value indicates a 50 ppm or 10 ppm test suspension was used, respectively. A dash (-) indicates the compound was not tested.

[2] = system: Puccinia recondita f. sp. tritici; experiment: Test B: test suspension sprayed on wheat seedlings one day before inoculation with Puccinia recondita f. sp. tritici spores (wheat leaf rust), disease rating; assay type: in vivo; conditions: 100 = 100% disease control, 0 = no control
From the text: General protocol for preparing test suspensions for Tests A-C: the test compounds were first dissolved in acetone in an amount equal to 3% of the final volume and then suspended at the desired concentration (in ppm) in acetone and purified water (50/50 mix by volume) containing 250 ppm of the surfactant PEG400 (polyhydric alcohol esters). The resulting test suspensions were then used in Tests A-C. The test solution was sprayed to the point of run-off on wheat seedlings. The following day the seedlings were inoculated with a spore suspension of Puccinia recondita f. sp. tritici (the causal agent of wheat leaf rust) and incubated in a saturated atmosphere at 20° C. for 24 h, and then moved to a growth chamber at 20° C. for 6 days, after which time disease ratings were made. Results for Tests A-C are given in Table A. In the Table, a rating of 100 indicates 100% disease control and a rating of 0 indicates no disease control (relative to the controls). An asterisk “*” or a double asterisk “**” next to the rating value indicates a 50 ppm or 10 ppm test suspension was used, respectively. A dash (-) indicates the compound was not tested.

SMILES	Test A rating (disease control) ([1]; 10 ppm test suspension)	Test B rating (disease control) ([2]; 10 ppm test suspension)	also measured
CCO/C(=C\Oc1ccc(Cn2cnc(C(=O)OC)n2)cc1)C(F)(F)F [Compound 123]	98%	0%	
CCOC(=O)c1cnn(CCc2ccc(OCC(O)(O)C(F)(F)F)cc2)c1 [Compound 131]			Test A rating (disease control) ([1]; 50 ppm test suspension): 99%; Test B rating (disease control) ([2]; 50 ppm test suspension): 86%
O=C(c1csc(Cc2ccc(OCC(O)(O)C(F)(F)F)cc2)n1)N1CCC(F)(F)C1 [Compound 135]	86%	61%	
CCOC(=O)c1csc(Cc2ccc(OCC(O)(O)C(F)(F)F)cc2)n1 [Compound 136]	98%	83%	
CCOC(=O)c1csc(Cc2ccc(OCC3(C(F)(F)F)OCCO3)cc2)n1 [Compound 137]	79%	0%	
N#Cc1ccc(OCC(O)(O)C(F)(F)F)cc1 [Compound 142]	92%	100%	
CCO/C(=C\Oc1ccc(Cn2cncn2)cc1)C(F)(F)F [Compound 157]	0%	9%	
O=Cc1ccc(OCC(O)(O)C(F)(F)F)cc1 [Compound 177]			Test A rating (disease control) ([1]; 50 ppm test suspension): 100%; Test B rating (disease control) ([2]; 50 ppm test suspension): 89%
CCOC(=O)c1cnn(Cc2ccc(OCC3(C(F)(F)F)OC(=O)[C@@H](C)O3)cc2)c1 (stereo partly shown) [Compound 187]	93%	74%	
N#Cc1cnn(Cc2ccc(OCC(O)(O)C(F)(F)F)cc2)c1 [Compound 206]			Test A rating (disease control) ([1]; 50 ppm test suspension): 100%; Test B rating (disease control) ([2]; 50 ppm test suspension): 98%
O=C(c1csc(Cc2ccc(OCC(O)(O)C(F)(F)F)cc2)n1)N1CCC1 [Compound 215]	80%	55%	
COCCNC(=O)c1csc(Cc2ccc(OCC(O)(O)C(F)(F)F)cc2)n1 [Compound 223]	75%	0%	
CCOC(=O)c1cnn(Cc2ccc(OC(F)(F)C(O)(O)C(F)(F)F)cc2)c1 [Compound 227]	99%	55%	
COC(=O)c1ccc(OCC(O)(O)C(F)(F)F)cc1 [Compound 229, methyl 4-(3,3,3-trifluoro-2,2-dihydroxypropoxy)phenylcarboxylate]			pest or weed control at 50 ppm ([1]; 50 ppm test suspension): 99%; pest or weed control at 50 ppm ([2]; 50 ppm test suspension): 100%
CCOC(=O)c1ccn(Cc2ccc(O/C=C(\OCC)C(F)(F)F)cc2)n1 [Compound 231, ethyl 1-[[4-[[(1Z)-2-ethoxy-3,3,3-trifluoro-1-propen-1-yl]oxy]phenyl]methyl]-1H-pyrazole-3-carboxylate]			pest or weed control at 10 ppm ([1]; 10 ppm test suspension): 100%; pest or weed control at 10 ppm ([2]; 10 ppm test suspension): 0%
CCOC(=O)c1ccn(Cc2ccc(OCC(O)(O)C(F)(F)F)cc2)n1 [Compound 233]			Test A rating (disease control) ([1]; 50 ppm test suspension): 100%; Test B rating (disease control) ([2]; 50 ppm test suspension): 96%
CCOC(=O)c1ccnn1Cc1ccc(OCC(O)(O)C(F)(F)F)cc1 [Compound 234]			Test A rating (disease control) ([1]; 50 ppm test suspension): 100%; Test B rating (disease control) ([2]; 50 ppm test suspension): 92%
O=C(NCC1CC1)c1cnc(Cc2ccc(OCC(O)(O)C(F)(F)F)cc2)o1 [Compound 247]	13%	0%	
O=C(NCC1CC1)c1cnc(Cc2ccc(OCC3(C(F)(F)F)OCCO3)cc2)o1 [Compound 248]	71%	0%	

SMILES	Test A rating (disease control) ([1]; 10 ppm test suspension)	Test B rating (disease control) ([2]; 10 ppm test suspension)	also measured
O=C(NCC1CC1)c1cnc(Cc2ccc(OCC(O)(O)C(F)(F)F)cc2)s1 [Compound 256]	73%	0%	
O=C(NCC(F)(F)F)c1cnc(Cc2ccc(OCC3(C(F)(F)F)OCCO3)cc2)o1 [Compound 257]	54%	0%	
O=C(NCC1CC1)c1cnc(Cc2ccc(OCC3(C(F)(F)F)OCCO3)cc2)s1 [Compound 259]	25%	0%	
CCO/C(=C\Oc1ccc(Cn2ncnc2SC)cc1)C(F)(F)F [Compound 260]	0%	0%	
CCO/C(=C\Oc1ccc(Cn2cnc(SC)n2)cc1)C(F)(F)F [Compound 261]	0%	0%	
CCOC(=O)c1cnn(Cc2ccc(OCC3(C(F)(F)F)OCCO3)c(F)c2)c1 [Compound 263, ethyl 1-[[3-fluoro-4-[[2-(trifluoromethyl)-1,3-dioxolan-2-yl]methoxy]phenyl]methyl]-1H-pyrazole-4-carboxylate]			pest or weed control at 10 ppm ([1]; 10 ppm test suspension): 100%; pest or weed control at 10 ppm ([2]; 10 ppm test suspension): 0%
CCOC(=O)c1cnn(Cc2cccc(OCC(O)(O)C(F)(F)F)c2)c1 [Compound 266, ethyl 1-[[3-(3,3,3-trifluoro-2,2-dihydroxypropoxy)phenyl]methyl]-1H-pyrazole-4-carboxylate]			pest or weed control at 50 ppm ([1]; 50 ppm test suspension): 86%; pest or weed control at 50 ppm ([2]; 50 ppm test suspension): 74%
O=C(NCC(F)(F)F)c1cnc(Cc2ccc(OCC(O)(O)C(F)(F)F)cc2)o1 [Compound 274]	48%	0%	
O=C(NCC(F)(F)F)c1cnc(Cc2ccc(OCC3(C(F)(F)F)OCCO3)cc2)s1 [Compound 275]	0%	0%	
O=C(NCC(F)(F)F)c1cnc(Cc2ccc(OCC(O)(O)C(F)(F)F)cc2)s1 [Compound 277]	50%	45%	
O=[N+]([O-])c1ccc(OCC(O)(O)C(F)(F)F)cc1 [Compound 280]			Test A rating (disease control) ([1]; 50 ppm test suspension): 100%; Test B rating (disease control) ([2]; 50 ppm test suspension): 100%
CCOC(=O)c1cnn(CCCc2ccc(OCC(O)(O)C(F)(F)F)cc2)c1 [Compound 286]	87%	55%	
O=C(NCC(F)F)c1cnc(Cc2ccc(OCC(O)(O)C(F)(F)F)cc2)s1 [Compound 295]			Test A rating (disease control) ([1]; 50 ppm test suspension): 99%; Test B rating (disease control) ([2]; 50 ppm test suspension): 80%
CCOC(=O)c1cnn(COCc2ccc(O/C=C(\OCC)C(F)(F)F)cc2)c1 [Compound 297, ethyl 1-[[4-[[(1Z)-2-ethoxy-3,3,3-trifluoro-1-propen-1-yl]oxy]phenylmethoxy]methyl]-1H-pyrazole-4-carboxylate]			pest or weed control at 10 ppm ([1]; 10 ppm test suspension): 100%; pest or weed control at 10 ppm ([2]; 10 ppm test suspension): 0%
CCO/C(=C\Oc1cccc(Cn2cc(C(=O)OC)cn2)c1)C(F)(F)F [Compound 330, methyl 1-[[3-[[(1Z)-2-ethoxy-3,3,3-trifluoro-1-propen-1-yl]oxy]phenyl]methyl]-1H-pyrazole-4-carboxylate]			pest or weed control at 10 ppm ([1]; 10 ppm test suspension): 100%; pest or weed control at 10 ppm ([2]; 10 ppm test suspension): 0%
CCCOC(=O)c1cnn(Cc2cccc(O/C=C(\OCC)C(F)(F)F)c2)c1 [Compound 331, propyl 1-[[3-[[(1Z)-2-ethoxy-3,3,3-trifluoro-1-propen-1-yl]oxy]phenyl]methyl]-1H-pyrazole-4-carboxylate]			pest or weed control at 10 ppm ([1]; 10 ppm test suspension): 100%; pest or weed control at 10 ppm ([2]; 10 ppm test suspension): 0%
CCOC(=O)c1cnn(COc2ccc(O/C=C(\OCC)C(F)(F)F)cc2)c1 [Compound 364, ethyl 1-[[4-[[(1Z)-2-ethoxy-3,3,3-trifluoro-1-propen-1-yl]oxy]phenoxy]methyl]-1H-pyrazole-4-carboxylate]			pest or weed control at 50 ppm ([1]; 50 ppm test suspension): 100%; pest or weed control at 50 ppm ([2]; 50 ppm test suspension): 0%
COC(=O)c1cnn(Cc2ccc(OCC3(C(F)(F)F)OCCO3)cc2)c1 [compound 13]	99%	0%	
CC(C)OC(=O)c1cnn(Cc2ccc(OCC3(C(F)(F)F)OCCO3)cc2)c1 [compound 14]	100%	0%	
